Test results taken from PubChem BioAssay AID1259407 (Chemical Carcinogenesis Research Information System (CCRIS), 2018).
Calls of active or inactive are those of the source. How the calls were made is not given here.

System: CCRIS mutagenicity, Ames/micronucleus/aberration tests
Experiment: CCRIS mutagenicity studies
[1] = Test System: AMES SALMONELLA TYPHIMURIUM, Strain/Indicator: TA97, Metabolic Activation: NONE, Method: PREINCUBATION
[2] = Test System: AMES SALMONELLA TYPHIMURIUM, Strain/Indicator: TA98, Metabolic Activation: NONE, Method: PREINCUBATION
[3] = Test System: AMES SALMONELLA TYPHIMURIUM, Strain/Indicator: TA100, Metabolic Activation: NONE, Method: PREINCUBATION
[4] = Test System: AMES SALMONELLA TYPHIMURIUM, Strain/Indicator: TA1535, Metabolic Activation: NONE, Method: PREINCUBATION
[5] = Test System: AMES SALMONELLA TYPHIMURIUM, Strain/Indicator: TA98, Metabolic Activation: NONE, Method: STANDARD PLATE
[6] = Test System: MOUSE LYMPHOMA, Strain/Indicator: L5178Y (TK+/TK-), Metabolic Activation: NONE, Method: SUSPENSION/PLATE
[7] = Test System: MOUSE LYMPHOMA, Strain/Indicator: L5178Y (TK+/TK-), Metabolic Activation: RAT, LIVER, S-9, AROCLOR 1254, Method: SUSPENSION/PLATE
[8] = Test System: AMES SALMONELLA TYPHIMURIUM, Strain/Indicator: TA100, Metabolic Activation: NONE, Method: STANDARD PLATE

c1ccc(Nc2ccccc2)cc1
mutagenic call (End Point: In vitro chromosomal aberrations, Test System: Chinese hamster lung (CHL/IU) cells, Metabolic Activation: Rat, Liver, S9, Phenobarbital and 5,6-benzoflavone): active; positive (structural changes). toxicity at 0.14 mg/ml. | mutagenic call (Test System: AMES SALMONELLA TYPHIMURIUM, Strain/Indicator: TA97, Metabolic Activation: HAMSTER, LIVER, S-9, AROCLOR 1254 (10%), Method: PREINCUBATION): inactive; negative | mutagenic call (Test System: AMES SALMONELLA TYPHIMURIUM, Strain/Indicator: TA97, Metabolic Activation: HAMSTER, LIVER, S-9, AROCLOR 1254 (30%), Method: PREINCUBATION): inactive; negative | mutagenic call [1]: inactive; negative | mutagenic call (Test System: AMES SALMONELLA TYPHIMURIUM, Strain/Indicator: TA97, Metabolic Activation: RAT, LIVER, S-9, AROCLOR 1254 (10%), Method: PREINCUBATION): inactive; negative | mutagenic call (Test System: AMES SALMONELLA TYPHIMURIUM, Strain/Indicator: TA97, Metabolic Activation: RAT, LIVER, S-9, AROCLOR 1254 (30%), Method: PREINCUBATION): inactive; negative | mutagenic call (Test System: AMES SALMONELLA TYPHIMURIUM, Strain/Indicator: TA98, Metabolic Activation: HAMSTER, LIVER, S-9, AROCLOR 1254 (10%), Method: PREINCUBATION): inactive; negative | mutagenic call (Test System: AMES SALMONELLA TYPHIMURIUM, Strain/Indicator: TA98, Metabolic Activation: HAMSTER, LIVER, S-9, AROCLOR 1254 (30%), Method: PREINCUBATION): inactive; negative | mutagenic call [2]: inactive; negative | mutagenic call (Test System: AMES SALMONELLA TYPHIMURIUM, Strain/Indicator: TA98, Metabolic Activation: RAT, LIVER, S-9, AROCLOR 1254 (10%), Method: PREINCUBATION): inactive; negative | mutagenic call (Test System: AMES SALMONELLA TYPHIMURIUM, Strain/Indicator: TA98, Metabolic Activation: RAT, LIVER, S-9, AROCLOR 1254 (30%), Method: PREINCUBATION): inactive; negative | mutagenic call (Test System: AMES SALMONELLA TYPHIMURIUM, Strain/Indicator: TA100, Metabolic Activation: HAMSTER, LIVER, S-9, AROCLOR 1254 (10%), Method: PREINCUBATION): inactive; negative | mutagenic call (Test System: AMES SALMONELLA TYPHIMURIUM, Strain/Indicator: TA100, Metabolic Activation: HAMSTER, LIVER, S-9, AROCLOR 1254 (30%), Method: PREINCUBATION): inactive; negative | mutagenic call [3]: inactive; negative | mutagenic call (Test System: AMES SALMONELLA TYPHIMURIUM, Strain/Indicator: TA100, Metabolic Activation: RAT, LIVER, S-9, AROCLOR 1254 (10%), Method: PREINCUBATION): inactive; negative | mutagenic call (Test System: AMES SALMONELLA TYPHIMURIUM, Strain/Indicator: TA100, Metabolic Activation: RAT, LIVER, S-9, AROCLOR 1254 (30%), Method: PREINCUBATION): inactive; negative | mutagenic call (Test System: AMES SALMONELLA TYPHIMURIUM, Strain/Indicator: TA1535, Metabolic Activation: HAMSTER, LIVER, S-9, AROCLOR 1254 (10%), Method: PREINCUBATION): inactive; negative | mutagenic call (Test System: AMES SALMONELLA TYPHIMURIUM, Strain/Indicator: TA1535, Metabolic Activation: HAMSTER, LIVER, S-9, AROCLOR 1254 (30%), Method: PREINCUBATION): inactive; negative | mutagenic call [4]: inactive; negative | mutagenic call (Test System: AMES SALMONELLA TYPHIMURIUM, Strain/Indicator: TA1535, Metabolic Activation: RAT, LIVER, S-9, AROCLOR 1254 (10%), Method: PREINCUBATION): inactive; negative | mutagenic call (Test System: AMES SALMONELLA TYPHIMURIUM, Strain/Indicator: TA1535, Metabolic Activation: RAT, LIVER, S-9, AROCLOR 1254 (30%), Method: PREINCUBATION): inactive; negative

[N-]=[N+]=NCCC(N)C(=O)O (configuration not stated)
mutagenic call (Test System: AMES SALMONELLA TYPHIMURIUM, Strain/Indicator: TA1530, Metabolic Activation: NONE, Method: STANDARD PLATE): active; positive

Cn1c(N=[N+]=[N-])nc2ccccc21
mutagenic call [5]: active; positive

COc1ccc(C(c2ccc(OC)cc2)C(Cl)(Cl)Cl)cc1
mutagenic call (Test System: CHINESE HAMSTER OVARY, Strain/Indicator: CHO-K1-BH4 (HGPRT)/6-THIOGUANINE, Metabolic Activation: NONE, Method: SUSPENSION/PLATE): inactive; negative | mutagenic call (Test System: CHINESE HAMSTER OVARY, Strain/Indicator: CHO-K1-BH4 (HGPRT)/6-THIOGUANINE, Metabolic Activation: S-9, Method: SUSPENSION/PLATE): inactive; negative | mutagenic call (Test System: E. COLI, Strain/Indicator: WP2 UVRA, Metabolic Activation: HAMSTER, LIVER, S-9, AROCLOR 1254, Method: STANDARD PLATE): inactive; negative | mutagenic call (Test System: E. COLI, Strain/Indicator: WP2 UVRA, Metabolic Activation: HAMSTER, LIVER, S-9, Method: STANDARD PLATE): inactive; negative | mutagenic call (Test System: E. COLI, Strain/Indicator: WP2 UVRA, Metabolic Activation: MOUSE, LIVER, S-9, AROCLOR 1254, Method: STANDARD PLATE): inactive; negative | mutagenic call (Test System: E. COLI, Strain/Indicator: WP2 UVRA, Metabolic Activation: MOUSE, LIVER, S-9, Method: STANDARD PLATE): inactive; negative | mutagenic call (Test System: E. COLI, Strain/Indicator: WP2 UVRA, Metabolic Activation: NONE, Method: STANDARD PLATE): inactive; negative | mutagenic call (Test System: E. COLI, Strain/Indicator: WP2 UVRA, Metabolic Activation: RAT, LIVER, S-9, AROCLOR 1254, Method: STANDARD PLATE): inactive; negative | mutagenic call (Test System: E. COLI, Strain/Indicator: WP2 UVRA, Metabolic Activation: RAT, LIVER, S-9, Method: STANDARD PLATE): inactive; negative | mutagenic call [6]: inactive; negative | mutagenic call [7]: active; positive | mutagenic call (Test System: MOUSE LYMPHOMA, Strain/Indicator: L5178Y (TK+/TK-), Metabolic Activation: RAT, LIVER, S-9, Method: SUSPENSION/PLATE): active; positive | mutagenic call (Test System: MOUSE LYMPHOMA, Strain/Indicator: L5178Y (TK+/TK-), Metabolic Activation: S-9, Method: SUSPENSION/PLATE): active; positive

c1ccc2scnc2c1
mutagenic call [6]: inactive; negative. reevaluation of results: negative | mutagenic call [7]: inactive; negative. reevaluation of results: negative

c1ccc(-c2ccccc2OCC2CO2)cc1 (configuration not stated)
mutagenic call [8]: active; positive | mutagenic call (Test System: AMES SALMONELLA TYPHIMURIUM, Strain/Indicator: TA1535, Metabolic Activation: NONE, Method: STANDARD PLATE): active; positive

N#CCCC#N
mutagenic call (Test System: AMES SALMONELLA TYPHIMURIUM, Strain/Indicator: TA97, Metabolic Activation: HAMSTER, LIVER, S-9, AROCLOR 1254 (10 OR 30%), Method: PREINCUBATION): inactive; negative | mutagenic call [1]: inactive; negative | mutagenic call (Test System: AMES SALMONELLA TYPHIMURIUM, Strain/Indicator: TA97, Metabolic Activation: RAT, LIVER, S-9, AROCLOR 1254 (10 OR 30%), Method: PREINCUBATION): inactive; negative | mutagenic call (Test System: AMES SALMONELLA TYPHIMURIUM, Strain/Indicator: TA98, Metabolic Activation: HAMSTER, LIVER, S-9, AROCLOR 1254 (10 OR 30%), Method: PREINCUBATION): inactive; negative | mutagenic call [2]: inactive; negative | mutagenic call (Test System: AMES SALMONELLA TYPHIMURIUM, Strain/Indicator: TA98, Metabolic Activation: RAT, LIVER, S-9, AROCLOR 1254 (10 OR 30%), Method: PREINCUBATION): inactive; negative | mutagenic call (Test System: AMES SALMONELLA TYPHIMURIUM, Strain/Indicator: TA100, Metabolic Activation: HAMSTER, LIVER, S-9, AROCLOR 1254 (10 OR 30%), Method: PREINCUBATION): inactive; negative | mutagenic call [3]: inactive; negative | mutagenic call (Test System: AMES SALMONELLA TYPHIMURIUM, Strain/Indicator: TA100, Metabolic Activation: RAT, LIVER, S-9, AROCLOR 1254 (10 OR 30%), Method: PREINCUBATION): inactive; negative | mutagenic call (Test System: AMES SALMONELLA TYPHIMURIUM, Strain/Indicator: TA1535, Metabolic Activation: HAMSTER, LIVER, S-9, AROCLOR 1254 (10 OR 30%), Method: PREINCUBATION): inactive; negative | mutagenic call [4]: inactive; negative | mutagenic call (Test System: AMES SALMONELLA TYPHIMURIUM, Strain/Indicator: TA1535, Metabolic Activation: RAT, LIVER, S-9, AROCLOR 1254 (10 OR 30%), Method: PREINCUBATION): inactive; negative

CCOP(=O)(OCC)Oc1cc(-c2ccccc2)on1
mutagenic call [5]: inactive; negative | mutagenic call (Test System: AMES SALMONELLA TYPHIMURIUM, Strain/Indicator: TA98, Metabolic Activation: RAT, LIVER, S-9, Method: STANDARD PLATE): inactive; negative | mutagenic call [8]: inactive; negative | mutagenic call (Test System: AMES SALMONELLA TYPHIMURIUM, Strain/Indicator: TA100, Metabolic Activation: RAT, LIVER, S-9, Method: STANDARD PLATE): inactive; negative

Nc1nccc2[nH]c3ccccc3c12
mutagenic call (Test System: AMES SALMONELLA TYPHIMURIUM, Strain/Indicator: TA1537, Metabolic Activation: NONE, Method: PREINCUBATION): active; positive
